Data reported in patent EP3002287B1, “Thiochromeno[2,3-c]quinolin-12-one derivatives and their use as topoisomerase inhibitors” (National Defense Medical Center, priority 2014, dated 2016).

Key:
Test in all cases: NCI in vitro 60-cell drug screen (SRB assay)
Assay type in all cases: cell-based
786-0 = 786-0 (Renal cancer); 10^-5 molar concentration; 48 hours
NCI-H226 = NCI-H226 (Non-small cell lung cancer); 10^-5 molar concentration; 48 hours
NCI-H23 = NCI-H23 (Non-small cell lung cancer); 10^-5 molar concentration; 48 hours
SN12C = SN12C (Renal cancer); 10^-5 molar concentration; 48 hours
MCF7 = MCF7 (Breast cancer); 10^-5 molar concentration; 48 hours
SNB-75 = SNB-75 (CNS cancer); 10^-5 molar concentration; 48 hours
M14 = M14 (Melanoma); 10^-5 molar concentration; 48 hours
HS 578T = HS 578T (Breast cancer); 10^-5 molar concentration; 48 hours
OVCAR-8 = OVCAR-8 (Ovarian cancer); 10^-5 molar concentration; 48 hours
SW-620 = SW-620 (Colon cancer); 10^-5 molar concentration; 48 hours
MOLT-4 = MOLT-4 (Leukemia); 10^-5 molar concentration; 48 hours
BT-549 = BT-549 (Breast cancer); 10^-5 molar concentration; 48 hours
NCI-H322M = NCI-H322M (Non-small cell lung cancer); 10^-5 molar concentration; 48 hours
NCI-H522 = NCI-H522 (Non-small cell lung cancer); 10^-5 molar concentration; 48 hours
SF-539 = SF-539 (CNS cancer); 10^-5 molar concentration; 48 hours
K-562 = K-562 (Leukemia); 10^-5 molar concentration; 48 hours
RPMI-8226 = RPMI-8226 (Leukemia); 10^-5 molar concentration; 48 hours
SK-MEL-5 = SK-MEL-5 (Melanoma); 10^-5 molar concentration; 48 hours
LOX IMVI = LOX IMVI (Melanoma); 10^-5 molar concentration; 48 hours
HOP-62 = HOP-62 (Non-small cell lung cancer); 10^-5 molar concentration; 48 hours
SK-OV-3 = SK-OV-3 (Ovarian cancer); 10^-5 molar concentration; 48 hours
SNB-19 = SNB-19 (CNS cancer); 10^-5 molar concentration; 48 hours
CAKI-1 = CAKI-1 (Renal cancer); 10^-5 molar concentration; 48 hours
A549/ATCC = A549/ATCC (Non-small cell lung cancer); 10^-5 molar concentration; 48 hours
PC-3 = PC-3 (Prostate cancer); 10^-5 molar concentration; 48 hours
HCC-2998 = HCC-2998 (Colon cancer); 10^-5 molar concentration; 48 hours
UACC-257 = UACC-257 (Melanoma); 10^-5 molar concentration; 48 hours
UO-31 = UO-31 (Renal cancer); 10^-5 molar concentration; 48 hours
HCT-116 = HCT-116 (Colon cancer); 10^-5 molar concentration; 48 hours
MDA-MB-231/ATCC = MDA-MB-231/ATCC (Breast cancer); 10^-5 molar concentration; 48 hours
SF-268 = SF-268 (CNS cancer); 10^-5 molar concentration; 48 hours
SR = SR (Leukemia); 10^-5 molar concentration; 48 hours
RXF 393 = RXF 393 (Renal cancer); 10^-5 molar concentration; 48 hours
NCI-H460 = NCI-H460 (Non-small cell lung cancer); 10^-5 molar concentration; 48 hours

| SMILES | Growth percent (786-0) | Growth percent (NCI-H226) | Growth percent (NCI-H23) | Growth percent (SN12C) | Growth percent (MCF7) | Growth percent (SNB-75) | Growth percent (M14) | Growth percent (HS 578T) | Growth percent (OVCAR-8) | Growth percent (SW-620) | Growth percent (MOLT-4) | Growth percent (BT-549) | Growth percent (NCI-H322M) | Growth percent (NCI-H522) | Growth percent (SF-539) | Growth percent (K-562) | Growth percent (RPMI-8226) | Growth percent (SK-MEL-5) | Growth percent (LOX IMVI) | Growth percent (HOP-62) | other results |
| --- | --- | --- | --- | --- | --- | --- | --- | --- | --- | --- | --- | --- | --- | --- | --- | --- | --- | --- | --- | --- | --- |
| O=c1c2cc(Cl)ccc2sc2c(N3CCN(Cc4ccccc4)CC3)nc3ccccc3c12 [Compound 11, 6-(4-Benzylpiperazin-1-yl)-10-chloro-12H-thiochromeno[2,3-c]q uinolin-12-one] | 105.57% | 88.98% | 89.94% | 97.70% | 68.32% | 82.62% | 93.00% | 76.42% | 98.54% | 93.08% | 90.91% | 114.05% | 88.92% | 96.69% | 108.56% | 87.84% | 96.63% | 98.38% | 94.22% | 87.72% | Growth percent (SK-OV-3): 94.79%; Growth percent (SNB-19): 95.52%; Growth percent (CAKI-1): 94.03%; Growth percent (A549/ATCC): 106.37%; Growth percent (PC-3): 89.12%; Growth percent (HCC-2998): 99.32%; Growth percent (UACC-257): 95.39%; Growth percent (UO-31): 64.91%; Growth percent (HCT-116): 98.59%; Growth percent (MDA-MB-231/ATCC): 89.11%; Growth percent (SF-268): 100.42%; Growth percent (SR): 85.15%; Growth percent (RXF 393): 100.71%; Growth percent (NCI-H460): 95.57% |
| O=c1c2cc(Cl)ccc2sc2c(N3CCOCC3)nc3ccccc3c12 [Compound 13, 10-Chloro-6-morpholino-12H-thiochromeno[2,3-c]quinolin-12-one] | 99.31% | 88.01% | 95.21% | 96.81% | 50.59% | 76.88% | 110.35% | 83.27% | 83.66% | 96.18% | 89.31% | 113.81% | 88.41% | 89.60% | 82.38% | 81.18% | 89.54% | 95.88% | 89.82% | 70.77% | Growth percent (SK-OV-3): 77.18%; Growth percent (SNB-19): 99.37%; Growth percent (CAKI-1): 90.00%; Growth percent (A549/ATCC): 92.97%; Growth percent (PC-3): 79.80%; Growth percent (HCC-2998): 108.75%; Growth percent (UACC-257): 110.91%; Growth percent (UO-31): 73.11%; Growth percent (HCT-116): 85.71%; Growth percent (MDA-MB-231/ATCC): 71.53%; Growth percent (SF-268): 103.56%; Growth percent (SR): 88.91%; Growth percent (RXF 393): 108.61%; Growth percent (NCI-H460): 99.28% |
| O=c1c2cc(Cl)ccc2sc2c(N3CCN(c4ccccc4)CC3)nc3ccccc3c12 [Compound 12, 10-Chloro-6-(4-phenylpiperazin-1-yl)-12H-thiochromeno[2,3-c] quinolin-12-one] | 101.58% | 87.10% | 93.80% | 102.66% | 74.16% | 94.73% | 104.02% | 85.20% | 90.34% | 100.20% | 107.23% | 123.95% | 84.41% | 93.50% | 100.06% | 112.37% | 99.93% | 103.57% | 95.15% | 86.00% | Growth percent (SK-OV-3): 100.39%; Growth percent (SNB-19): 105.57%; Growth percent (CAKI-1): 97.83%; Growth percent (A549/ATCC): 98.54%; Growth percent (PC-3): 90.66%; Growth percent (HCC-2998): 105.23%; Growth percent (UACC-257): 93.68%; Growth percent (UO-31): 63.85%; Growth percent (HCT-116): 105.36%; Growth percent (MDA-MB-231/ATCC): 94.34%; Growth percent (SF-268): 103.82%; Growth percent (SR): 103.11%; Growth percent (RXF 393): 107.68%; Growth percent (NCI-H460): 103.24% |
